Measurements as given in ChEMBL document CHEMBL1136988, “1-amino-4-benzylphthalazines as orally bioavailable smoothened antagonists with antitumor activity” (J Med Chem, 2009).

How the values were obtained:
Protein smoothened [1] = biological target: Protein smoothened (Homo sapiens, UniProt Q99835); assay: Displacement of [3H]3-chloro-4,7-difluoro-N-(4-methoxy-3-(pyridin-4-yl)benzyl)-N-(4-(methylamino)cyclohexyl)benzo[b]thiophene-2-carboxamide from human Smoothened receptor expressed in CHO-K1 cells by membrane filter binding assay; type: cell-based
Protein smoothened [2] = biological target: T1, Protein smoothened (Mus musculus, UniProt P56726); type: cell-based, TM3
Description: Inhibition of Smoothened receptor in mouse TM3 cells transfected with pTA-8xGli-Luc reporter gene assessed as inhibition of 25 nM 3-chloro-4,7-difluoro-N-(4-methoxy-3-(pyridin-4-yl)benzyl)-N-(4-(methylamino)cyclohexyl)benzo[b]thiophene-2-carboxamide-induced Hedgehog pathway activation by Gli shift assay

Protein smoothened [3] = biological target: T1, Protein smoothened; assay: Inhibition of Smoothened receptor in mouse TM3 cells transfected with pTA-8xGli-Luc reporter gene assessed as inhibition of 1 nM 3-chloro-4,7-difluoro-N-(4-methoxy-3-(pyridin-4-yl)benzyl)-N-(4-(methylamino)cyclohexyl)benzo[b]thiophene-2-carboxamide-induced Hedgehog pathway activation by Gli shift assay; type: cell-based
Protein smoothened [4] = biological target: T1, Protein smoothened; assay: Displacement of [3H]3-chloro-4,7-difluoro-N-(4-methoxy-3-(pyridin-4-yl)benzyl)-N-(4-(methylamino)cyclohexyl)benzo[b]thiophene-2-carboxamide from mouse Smoothened receptor expressed in CHO-K1 cells by membrane filter binding assay; type: cell-based

T1 sequence (P56726 whole entry): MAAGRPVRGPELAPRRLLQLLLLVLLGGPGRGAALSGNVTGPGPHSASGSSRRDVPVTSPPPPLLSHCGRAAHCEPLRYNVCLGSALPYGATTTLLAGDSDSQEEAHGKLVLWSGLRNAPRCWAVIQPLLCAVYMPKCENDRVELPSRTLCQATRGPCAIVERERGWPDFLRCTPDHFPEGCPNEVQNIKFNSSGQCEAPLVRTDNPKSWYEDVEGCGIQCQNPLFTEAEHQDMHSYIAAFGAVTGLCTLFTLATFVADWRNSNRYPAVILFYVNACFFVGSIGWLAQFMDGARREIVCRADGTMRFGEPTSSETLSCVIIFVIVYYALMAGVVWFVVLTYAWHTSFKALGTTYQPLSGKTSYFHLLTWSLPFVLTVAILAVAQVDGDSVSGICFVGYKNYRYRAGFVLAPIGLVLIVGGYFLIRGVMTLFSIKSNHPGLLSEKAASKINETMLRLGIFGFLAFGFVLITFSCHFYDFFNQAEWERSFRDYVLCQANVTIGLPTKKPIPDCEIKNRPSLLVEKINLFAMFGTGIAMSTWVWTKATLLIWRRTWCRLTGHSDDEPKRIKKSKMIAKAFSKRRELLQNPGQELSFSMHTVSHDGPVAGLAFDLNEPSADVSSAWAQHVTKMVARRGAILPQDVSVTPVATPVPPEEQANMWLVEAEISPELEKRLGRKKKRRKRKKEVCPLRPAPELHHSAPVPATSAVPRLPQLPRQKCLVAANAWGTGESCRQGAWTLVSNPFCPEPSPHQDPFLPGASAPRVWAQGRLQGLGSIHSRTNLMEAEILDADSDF
Protein smoothened (Homo sapiens, UniProt Q99835), sequence (Q99835 whole entry): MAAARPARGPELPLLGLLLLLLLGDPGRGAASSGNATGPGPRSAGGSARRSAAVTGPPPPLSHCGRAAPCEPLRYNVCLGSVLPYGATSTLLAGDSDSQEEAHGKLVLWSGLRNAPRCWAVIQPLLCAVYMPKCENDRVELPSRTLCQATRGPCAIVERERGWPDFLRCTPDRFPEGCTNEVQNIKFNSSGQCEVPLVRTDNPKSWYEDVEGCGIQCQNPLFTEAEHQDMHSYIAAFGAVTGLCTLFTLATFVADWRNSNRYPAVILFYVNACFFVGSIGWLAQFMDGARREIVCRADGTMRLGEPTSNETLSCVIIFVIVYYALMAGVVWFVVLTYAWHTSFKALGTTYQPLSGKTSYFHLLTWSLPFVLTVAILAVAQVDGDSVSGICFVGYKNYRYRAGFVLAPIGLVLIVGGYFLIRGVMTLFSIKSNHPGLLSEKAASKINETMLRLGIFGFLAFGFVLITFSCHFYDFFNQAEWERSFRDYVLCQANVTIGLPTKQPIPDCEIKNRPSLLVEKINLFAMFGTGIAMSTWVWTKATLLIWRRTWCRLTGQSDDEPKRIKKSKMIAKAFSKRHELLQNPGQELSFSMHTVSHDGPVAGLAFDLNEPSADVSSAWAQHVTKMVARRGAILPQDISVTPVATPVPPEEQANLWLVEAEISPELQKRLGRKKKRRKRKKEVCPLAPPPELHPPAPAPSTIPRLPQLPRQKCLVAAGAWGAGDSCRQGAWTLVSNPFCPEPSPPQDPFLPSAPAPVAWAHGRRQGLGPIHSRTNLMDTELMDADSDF

Structure (SMILES)	IC50 (Protein smoothened [1]) [µM]	IC50 (Protein smoothened [2]) [µM]	IC50 (Protein smoothened [3]) [µM]	IC50 (Protein smoothened [4]) [µM]
N#Cc1ccc(N2CCN(c3nnc(Cc4ccc(C(F)(F)F)cc4)c4ccccc34)CC2)nc1	0.185	1.24	0.366	0.226
N#Cc1ccc(N2CCN(c3ncc(Cc4ccccc4)c4ccccc34)CC2)nc1	> 5	2.99	1.43	> 5
FC(F)(F)c1ccc(N2CCN(c3nnc(Cc4ccccc4)c4ccoc34)CC2)nc1	> 5	> 5	1.8	> 5
FC(F)(F)c1ccc(N2CCN(c3nnc(Cc4ccccc4)c4[nH]cnc34)CC2)nc1	> 5	1.55	0.724	> 5
C[C@H]1CN(c2nnc(Cc3ccccc3)c3ccccc23)CCN1c1ccc(C#N)cn1	0.059	0.735	0.079	0.066
N#Cc1ccc(C2CCN(c3nnc(Cc4ccccc4)c4ccccc34)CC2)cc1	> 5	> 5	3.78	> 5
COC(=O)c1ccc(Cc2nnc(N3CCN(c4ccc(C#N)cn4)CC3)c3ccccc23)cc1	2.93	> 5	0.265	0.165
N#Cc1ccc(N2CCN(c3nnc(Cc4ccc(C(=O)O)cc4)c4ccccc34)CC2)nc1	> 5	> 5	> 5	> 5
N#Cc1ccc(N2CCN(c3cnc(Cc4ccccc4)c4ccccc34)CC2)nc1	> 5	2.5	0.91	> 5
N#Cc1ccc(Cc2nnc(N3CCN(c4ccc(C#N)cn4)CC3)c3ccccc23)cc1	0.034	0.256	0.02	0.023
C[C@@H]1CN(c2ccc(C#N)cn2)CCN1c1nnc(Cc2ccccc2)c2ccccc12	0.217	0.738	0.086	0.18
C[C@H]1CN(c2ccc(C#N)cn2)CCN1c1nnc(Cc2ccccc2)c2ccccc12	0.017	0.21	0.025	0.022
C[C@@H]1CN(c2nnc(Cc3ccccc3)c3ccccc23)CCN1c1ccc(C#N)cn1	0.034	0.244	0.03	0.017
FC(F)(F)c1ccc(N2CCN(c3nnc(Cc4ccccc4)c4occc34)CC2)nc1	0.23	2.56	0.212	0.139
N#Cc1ccc(N2CCC(c3cn(Cc4ccccc4)c4ccccc34)CC2)nc1	0.401	1.51	0.382	0.386

Other lines, results leading:

IC50 (Protein smoothened [1]) [µM]	IC50 (Protein smoothened [2]) [µM]	IC50 (Protein smoothened [3]) [µM]	IC50 (Protein smoothened [4]) [µM]	Structure (SMILES)
1.24	0.772	0.258	0.643	c1ccc(Cc2nnc(N3CCN(c4ccccn4)CC3)c3ccccc23)cc1
0.015	0.042	0.0013	0.006	CC(C)(N)c1ccc(N2CCN(c3nnc(Cc4ccccc4)c4ccccc34)CC2)nc1
0.067	0.222	0.038	0.061	CC(O)c1ccc(N2CCN(c3nnc(Cc4ccccc4)c4ccccc34)CC2)nc1 (stereo unspecified)
0.484	2.45	0.374	0.187	OCc1ccc(N2CCN(c3nnc(Cc4ccccc4)c4ccccc34)CC2)nc1
0.306	0.919	0.104	0.09	NS(=O)(=O)c1ccc(N2CCN(c3nnc(Cc4ccccc4)c4ccccc34)CC2)nc1
0.082	0.693	0.112	0.054	N#Cc1ccc(N2CCN(c3nnc(Cc4cccc(Cl)c4)c4ccccc34)CC2)nc1
0.021	0.345	0.055	0.01	OC1(c2ccc(N3CCN(c4nnc(Cc5ccccc5)c5ccccc45)CC3)nc2)CC1
0.095	1.33	0.134	0.074	FC(F)(F)c1ccc(N2CCN(c3nnc(Cc4ccccc4)c4ccccc34)CC2)nc1
> 5	4.49	0.69	3.69	c1ccc(N2CCN(c3nnc(Cc4ccncc4)c4ccccc34)CC2)nc1
0.196	0.327	0.035	0.096	CC(=O)NCc1ccc(N2CCN(c3nnc(Cc4ccccc4)c4ccccc34)CC2)nc1
4.24	2.25	0.414	1.1	c1ccc(Cc2nnc(N3CCN(c4ccccc4)CC3)c3ccccc23)cc1
2.26	> 5	2.67	1.64	O=C(O)c1ccc(N2CCN(c3nnc(Cc4ccccc4)c4ccccc34)CC2)nc1
0.07	0.136	0.017	0.028	CC(O)(CO)c1ccc(N2CCN(c3nnc(Cc4ccccc4)c4ccccc34)CC2)nc1 (racemic)
0.724	0.149	0.046	0.173	NC(=O)c1ccc(N2CCN(c3nnc(Cc4ccccc4)c4ccccc34)CC2)nc1
0.654	0.246	0.014	0.287	CN(C)Cc1ccc(N2CCN(c3nnc(Cc4ccccc4)c4ccccc34)CC2)nc1
0.112	0.821	0.069	0.071	N#Cc1ccc(N2CCN(c3nnc(Cc4ccccc4)c4ccccc34)CC2)nc1
0.103	0.975	0.112	0.069	N#Cc1ccc(N2CCN(c3nnc(Cc4ccc(F)cc4)c4ccccc34)CC2)nc1
0.025	0.498	0.048	0.02	N#Cc1ccc(N2CCN(c3nnc(Cc4ccc(Cl)cc4)c4ccccc34)CC2)nc1
0.391	1.63	0.21	0.153	N#Cc1ccc(N2CCCN(c3nnc(Cc4ccccc4)c4ccccc34)CC2)nc1
